The text below walks through data of publication PMC5939605, “Highly luminescent, biocompatible ytterbium(III) complexes as near-infrared fluorophores for living cell imaging” (Chemical Science, 2018).

Data set [1] in a line: NIR luminescence decay lifetime monitored at 980 nm. It is filed as physicochemical. As for the experimental part:
Emission, excitation spectra and lifetime were measured on an Edinburgh Analytical Instruments FLS980 lifetime and steady state spectrometer equipped with a 450 W Xe lamp, a 60 W microsecond flash lamp, PMT R928 for the visible emission spectrum, HAMAMATSU R5509-73 PMT with a C9940-02 cooler for the NIR emission spectrum and luminescence lifetime. Excitation and emission spectra were corrected for instrumental functions (including the correction for detector, gratings etc.). All luminescence decays were exponentially tail-fitted by monoexponential functions without deconvolution for the negligible instrumental reference function in the NIR region.

The nature of data set [2]: n-octanol/water partition coefficient (log P). Format: physicochemical. As to the method: Equal volumes (2000 mL) of n-octanol and water were thoroughly mixed using an oscillator and separated after 24 h. Yb^3+ complex (0.1 mg each) was then dissolved in 40 mL of the separated n-octanol and the solution and 40 mL of water (previously separated from the mixture) was added. The new water–octanol system was allowed to equilibrate for additional 24 h. After separation, both fractions were analyzed by UV-vis spectra. The log P values were calculated with the following equation:[80]1 log P = log(Coctanol/Cwater)where Coctanol and Cwater refer to the concentrations of Yb^3+ complexes in n-octanol and water, respectively.

The nature of data set [3]: Stability in solution and aqueous media (absorption / NIR luminescence, dark and 405 nm laser). It is filed as physicochemical. From the text:
We also measured the ^2D NMR of Yb-4 in CH3OH as an example (Fig. S75 ^†) and only one single peak was observed.
Fig. 2 (a) Spectroscopic evaluation of Yb-4 photostability in water, PBS and FBS with 0.1% DMSO under irradiation of a 405 nm laser (0.2 W cm^–2) (inset: dark stability); (b) spectroscopic evaluation of Yb-4 and Yb-4c stabilities in pH = 5 PBS with 0.1% DMSO under irradiation of a 405 nm laser (0.2 W cm^–2). Emission intensity values were referenced to the emission intensity of Yb^3+ (980 nm) at 0 h.

Data set [4] can be described thus: NIR luminescence quantum yield, comparative method vs YbTPP(LOEt). It is filed as physicochemical. As for the experimental part:
Quantum yields in solution were determined using a comparative method and the equation: Φs/Φr = (Gs/Gr) × (ηs^2/ηr^2), where the subscripts r and s denote the reference and sample respectively, Φ is the quantum yield, G is the slope from the plot of integrated emission intensity vs. absorbance, and η is the refractive index of the solvent.[79] The reference was YbTPP(LOEt) in CH2Cl2 ([…]).[53] Generally, YbTPP(LOEt) and the solution of Yb^3+ complex with 4 different concentrations were firstly prepared in the corresponding solvents. The absorbance of all the solutions at 410 nm was recorded on an Agilent 8453 UV-vis spectrometer equipped with an Agilent 89090A thermostat (±0.1 °C) and NIR emissions were recorded on an Edinburgh Analytical Instruments FLS980 lifetime and steady state spectrometer with the excitation wavelength at 410 nm under identical conditions. According to the ratio of the slope GYb – x/Gr (x = 1–5, 2c–5c), the relative quantum yield of Yb^3+ complexes could be obtained according to the equation described above. The absorbance values of all the samples and references are below 0.1 and the absorbance values undergo background correction by subtracting the average over a range from 800 to 820 nm. The integrated emission intensity integrated from 880 nm to 1150 nm was obtained by subtracting the blank (integrated emission intensity with only the pure solvent under identical conditions). The estimated error for the quantum yield measurements is 15%. For the quantum yield measured in degassed solution, solutions of Yb^3+ complexes with 4 different concentrations were degassed via 5 freeze–pump–thaw cycles. Then the measurement and calculation were the same as above.

Details of data set [5]: method as in PMID 22908122. Conditions: in CHCl3 ref 59; cited from earlier work.
Details of data set [6]: method as in PMID 12895128. Conditions: in CH2Cl2 ref 53; cited from earlier work.

Where “and” joins values, the source holds several entries; their conditions need not be identical. Equal values may be shown once.

As for `C[N+]1(C)CC2(F)C3=NC(=C(c4c(F)c(F)c(F)c(F)c4F)c4c(F)c(F)c5[n]4[Yb+][n]4c(c(F)c(F)c4=C3c3c(F)c(F)c(F)c(F)c3F)=C(c3c(F)c(F)c(F)c(F)c3F)C3=NC(=C5c4c(F)c(F)c(F)c(F)c4F)C(F)=C3F)C2(F)C1.[2H]C([2H])([2H])O[P](=O)(OC([2H])([2H])[2H])[Co-]([CH]1C=CC=C1)([P](=O)(OC([2H])([2H])[2H])OC([2H])([2H])[2H])[P](=O)(OC([2H])([2H])[2H])OC([2H])([2H])[2H].[I-]` (centres unmarked) [Yb-4], the τobs was 173(4) μs in data set [1] (DMSO, air-equil., monitored at 980 nm); 187(8) μs in data set [1] (DMSO, degassed, monitored at 980 nm); 140 μs and 140(5) μs in data set [1] (H2O with 0.1% DMSO, air-equil., monitored at 980 nm); 142(5) μs in data set [1] (H2O with 0.1% DMSO, degassed, monitored at 980 nm); 86(4) μs in data set [1] (ethanol, air-equil., λex = 410 nm, 980 nm); 99(2) μs in data set [1] (ethanol, degassed, λex = 410 nm, 980 nm). The τobs in data set [1] (glycerol, air-equil., λex = 410 nm, 980 nm) is recorded as 192(4) μs; in data set [1] (glycerol, degassed, λex = 410 nm, 980 nm) it was 195(5) μs; in data set [1] (i-propanol, air-equil., λex = 410 nm, 980 nm) it was 110(5) μs; in data set [1] (i-propanol, degassed, λex = 410 nm, 980 nm) it was 120(3) μs; in data set [1] (methanol, air-equil., λex = 410 nm, 980 nm), 68(2) μs; in data set [1] (methanol, degassed, λex = 410 nm, 980 nm), 74(3) μs. Besides, the τobs in data set [1] (t-butanol, air-equil., λex = 410 nm, 980 nm) is 117(4) μs; in data set [1] (t-butanol, degassed, λex = 410 nm, 980 nm) it was 127(3) μs. Also, in data set [1] (bovine albumin (BSA), air-saturated, 0.1% DMSO, monitored at 980 nm), the “Decay lifetime (τobs)” value is 145(3). Further, the “log Po/w” value in data set [2] worked out at 1.34. In data set [3] (pH = 5 PBS with 0.1% DMSO, 405 nm laser 0.2 W cm^–2), the photostability entry is listed as “photostable over 4 h”. Further, the “NIR luminescence under continuous irradiation” value in data set [3] (water, PBS and FBS with 0.1% DMSO, 405 nm laser, 0.2 W cm^–2) is listed as “did not significantly change”. Besides, the dark stability entry in data set [3] (water, PBS and FBS with 0.1% DMSO, NIR luminescence) is given as “high dark stability over 48 h”. Besides, the ΦYb in data set [4] (DMSO, air-equil.) was 17(2) %; in data set [4] (DMSO, degassed), 18(2) %; in data set [4] (H2O with 0.1% DMSO, air-equil.) it was 10% and 10(1) %; in data set [4] (H2O with 0.1% DMSO, degassed), 10(1) %. Further, in data set [4] (H2O, air-saturated), the “ΦYb and τobs in H2O relative to Yb-4c” value was determined as 4 fold.
As to `C1=Cc2nc1c(-c1ccccc1)c1nc(c(-c3ccccc3)c3ccc([nH]3)c(-c3ccccc3)c3ccc([nH]3)c2-c2ccccc2)C=C1` [TPP, tetraphenylporphyrin], the “singlet oxygen quantum yield of reference (ΦΔ)” value in data set [5] is recorded as 0.55.
As to “5,10,15,20-tetraphenylporphyrin-Yb(III)-[(cyclopentadienyl)tris(di(ethyl)phosphito)cobaltate] [YbTPP(LOEt)]”, the “NIR luminescence quantum yield of reference” value in data set [6] is given as 0.024.
